The source of these data is US9650340B2, “5-fluoro-N-(pyridin-2-yl)pyridin-2-amine derivatives containing a sulfoximine group” (BAYER PHARMA AKTIENGESELLSCHAFT, priority 2012, dated 2017).

For assay [1], the system named is NCI-H460, human non-small cell lung carcinoma cells. The assay is described as follows: Proliferation assay, NCI-H460 (crystal violet). It counts as cell-based. Conditions: NCI-H460, 4 days, read-out: Inhibition of NCI-H460 cell proliferation IC50. As for the experimental part:
(§1) Cultivated tumour cells (HeLa, human cervical tumour cells, ATCC CCL-2; NCI-H460, human non-small cell lung carcinoma cells, ATCC HTB-177; A2780, human ovarian carcinoma cells, ECACC #93112519; DU 145, hormone-independent human prostate carcinoma cells, ATCC HTB-81; HeLa-MaTu-ADR, multidrug-resistant human cervical carcinoma cells, EPO-GmbH Berlin; Caco-2, human colorectal carcinoma cells, ATCC HTB-37; B16F10, mouse melanoma cells, ATCC CRL-6475) were plated at a density of 5,000 cells/well (DU145, HeLa-MaTu-ADR), 3,000 cells/well (NCI-H460, HeLa), 2,500 cells/well (A2780), 1,500 cells/well (Caco-2), or 1,000 cells/well (B16F10) in a 96-well multititer plate in 200 μL of their respective growth medium supplemented 10% fetal calf serum. After 24 hours, the cells of one plate (zero-point plate) were stained with crystal violet (see below), while the medium of the other plates was replaced by fresh culture medium (200 μl), to which the test substances were added in various concentrations (0 μM, as well as in the range of 0.001-10 μM; the final concentration of the solvent dimethyl sulfoxide was 0.5%). The cells were incubated for 4 days in the presence of test substances. Cell proliferation was determined by staining the cells with crystal violet: the cells were fixed by adding 20 μl/measuring point of an 11% glutaric aldehyde solution for 15 minutes at room temperature. After three washing cycles of the fixed cells with water, the plates were dried at room temperature. The cells were stained by adding 100 μl/measuring point of a 0.1% crystal violet solution (pH 3.0). After three washing cycles of the stained cells with water, the plates were dried at room temperature. The dye was dissolved by adding 100 μl/measuring point of a 10% acetic acid solution. The extinction was determined by photometry at a wavelength of 595 nm. The change of cell number, in percent, was calculated by normalization of the measured values to the extinction values of the zero-point plate (=0%) and the extinction of the untreated (0 μm) cells (=100%). The IC50 values (inhibitory concentration at 50% of maximal effect) were determined by means of a 4 parameter fit. Non-adherent MOLM-13 human acute myeloid leukemia cells (DSMZ ACC 554) were seeded at a density of 5,000 cells/well in a 96-well multititer plate in 100 μL of growth medium supplemented 10% fetal calf serum. After 24 hours, cell viability of one plate (zero-point plate) was determined with the Cell Titre-Glo Luminescent Cell Viability Assay (Promega), while 50 μL of test compound containing medium was added to the wells of the other plates (final concentrations in the range of 0.001-10 μM and DMSO controls; the final concentration of the solvent dimethyl sulfoxide was 0.5%). Cell viability was assessed after 72-hour exposure with the Cell Titre-Glo Luminescent Cell Viability Assay (Promega).

The target in a further assay is T1, CDK9/CycT1 (Homo sapiens, UniProt P50750).
T1 construct: Recombinant full-length His-tagged human CDK9 and CycT1; His; purchased Invitrogen PV4131; host or cells: insect cells
T1 sequence (P50750 whole entry): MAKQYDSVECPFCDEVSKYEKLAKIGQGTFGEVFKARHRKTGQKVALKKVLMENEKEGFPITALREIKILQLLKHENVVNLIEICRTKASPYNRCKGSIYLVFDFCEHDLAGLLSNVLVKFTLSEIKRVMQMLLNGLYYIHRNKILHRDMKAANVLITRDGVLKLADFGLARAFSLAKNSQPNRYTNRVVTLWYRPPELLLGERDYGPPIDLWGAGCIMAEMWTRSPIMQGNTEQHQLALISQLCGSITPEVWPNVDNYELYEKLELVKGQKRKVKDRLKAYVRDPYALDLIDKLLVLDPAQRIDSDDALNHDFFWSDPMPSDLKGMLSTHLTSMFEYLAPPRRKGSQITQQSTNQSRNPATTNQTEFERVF
T1 sequence (O60563 whole entry partner): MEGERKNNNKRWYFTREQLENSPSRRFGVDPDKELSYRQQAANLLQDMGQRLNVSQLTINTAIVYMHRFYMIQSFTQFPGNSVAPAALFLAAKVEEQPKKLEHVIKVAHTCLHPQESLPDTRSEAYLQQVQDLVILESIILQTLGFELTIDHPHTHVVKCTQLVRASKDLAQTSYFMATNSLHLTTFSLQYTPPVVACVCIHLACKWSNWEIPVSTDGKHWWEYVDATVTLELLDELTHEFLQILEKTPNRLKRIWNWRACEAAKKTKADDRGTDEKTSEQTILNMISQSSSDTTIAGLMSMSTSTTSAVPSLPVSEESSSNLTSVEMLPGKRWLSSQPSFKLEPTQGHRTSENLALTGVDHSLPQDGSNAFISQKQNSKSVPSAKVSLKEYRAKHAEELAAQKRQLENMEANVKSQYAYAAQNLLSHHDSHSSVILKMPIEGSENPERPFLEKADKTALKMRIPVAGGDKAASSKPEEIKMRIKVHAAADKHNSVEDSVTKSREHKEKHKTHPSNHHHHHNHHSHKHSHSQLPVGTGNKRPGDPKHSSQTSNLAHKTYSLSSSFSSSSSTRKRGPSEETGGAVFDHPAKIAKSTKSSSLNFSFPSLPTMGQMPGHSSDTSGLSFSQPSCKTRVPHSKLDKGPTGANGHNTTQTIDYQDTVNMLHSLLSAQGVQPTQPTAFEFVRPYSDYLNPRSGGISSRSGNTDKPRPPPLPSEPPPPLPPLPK
The assay is described as follows: CDK9/CycT1 high ATP kinase assay (TR-FRET, 2 mM ATP). It counts as biochemical. Particulars: Method 1b. How it is done:
1b. CDK9/CyeT1 High ATP Kinase Assay
CDK9/CycT1-inhibitory activity of compounds of the present invention at a high ATP concentration after preincubation of enzyme and test compounds was quantified employing the CDK9/CycT1 TR-FRET assay as described in the following paragraphs.
Recombinant full-length His-tagged human CDK9 and CycT1, expressed in insect cells and purified by Ni-NTA affinity chromatography, were purchase from Invitrogen (Cat. No PV4131). As substrate for the kinase reaction biotinylated peptide biotin-Ttds-[…] (C-terminus in amid form) was used which can be purchased e.g. form the company JERINI peptide technologies (Berlin, Germany). For the assay 50 nl of a 100 fold concentrated solution of the test compound in DMSO was pipetted into a black low volume 384 well microtiter plate (Greiner Bio-One, Frickenhausen, Germany), 2 μl of a solution of CDK9/CycT1 in aqueous assay buffer [50 mM Tris/HCl pH 8.0, 10 mM MgCl2, 1.0 mM dithiothreitol, 0.1 mM sodium ortho-vanadate, 0.01% (v/v) Nonidet-P40 (Sigma)] were added and the mixture was incubated for 15 min at 22° C. to allow pre-binding of the test compounds to the enzyme before the start of the kinase reaction. Then the kinase reaction was started by the addition of 3 μl of a solution of adenosine-tri-phosphate (ATP, 3.3 mM=>final conc. in the 5 μl assay volume is 2 mM) and substrate (1.67 μM=>final conc. in the 5 μl assay volume is 1 μM) in assay buffer and the resulting mixture was incubated for a reaction time of 25 min at 22° C.
The resulting mixture was incubated 1 h at 22° C. to allow the formation of complex between the phosphorylated biotinylated peptide and the detection reagents. Subsequently the amount of phosphorylated substrate was evaluated by measurement of the resonance energy transfer from the Eu-chelate to the streptavidine-XL. Therefore, the fluorescence emissions at 620 nm and 665 nm after excitation at 350 nm was measured in a HTRF reader, e.g. a Rubystar (BMG Labtechnologies, Offenburg, Germany) or a Viewlux (Perkin-Elmer). The ratio of the emissions at 665 nm and at 622 nm was taken as the measure for the amount of phosphorylated substrate.
In general terms: TR-FRET usually uses a lanthanide donor and a delayed reading to cut background.

Assay [2] deals with B16F10, mouse melanoma cells. The assay is described as follows: Proliferation assay, B16F10 (crystal violet). Conditions: B16F10, 4 days, read-out: Inhibition of B16F10 cell proliferation IC50. It counts as cell-based. As for the experimental part:
as §1

Assay [3] concerns DU 145, hormone-independent human prostate carcinoma cells. Put plainly: Proliferation assay, DU145 (crystal violet). It counts as cell-based. Particulars: DU145, 4 days, read-out: Inhibition of DU145 cell proliferation IC50. How it is done: as §1

Where a name gives a salt, the structure may show the parent alone. Read-outs that look alike come from different tables or passages of the source.

Take `CCOC(=O)N=S(C)(=O)Cc1ccnc(Nc2cc(-c3ccc(F)cc3OC)c(F)cn2)c1` (racemic) [Example 11, (rac)-Ethyl{[(2-{[5-fluoro-4-(4-fluoro-2-methoxyphenyl)pyridin-2-yl]amino}pyridin-4-yl)methyl](methyl)oxido-λ^6-sulfanylidene}carbamate]: the IC50 in assay [1] (Homo sapiens, NCI-H460, 96 h) worked out at 110 nM; on CDK9/CycT1, 1 nM; in assay [2] (Mus musculus, B16-F10, 96 h) it was 180 nM; in assay [3] (Homo sapiens, DU-145, 96 h), 110 nM.

Consider `CCOc1cc(F)ccc1-c1cc(Nc2cc(CS(C)(=O)=NC(=O)C(F)(F)F)cc(F)n2)ncc1F` (racemic) [Example 27, (rac)-N-{[(2-{[4-(2-Ethoxy-4-fluoro-phenyl)-5-fluoropyridin-2-yl]amino}-6-fluoropyridin-4-yl)methyl]-(methyl)oxido-λ^6-sulfanylidene}-2,2,2-trifluoroacetamide], for which the IC50 in assay [1] (Homo sapiens, NCI-H460, 96 h) amounted to 120 nM; against CDK9/CycT1, 22 nM; in assay [2] (Mus musculus, B16-F10, 96 h), 150 nM; in assay [3] (Homo sapiens, DU-145, 96 h) it was 110 nM.

As for `CCOc1cc(F)ccc1-c1cc(Nc2cc(CS(C)(=N)=O)cc(F)n2)ncc1F` (racemic) [Example 26, (rac)-4-(2-Ethoxy-4-fluorophenyl)-5-fluoro-N-{6-fluoro-4-[(S-methylsulfonimidoyl)methyl]pyridin-2-yl}pyridin-2-amine], the IC50 in assay [1] (Homo sapiens, NCI-H460, 96 h) amounted to 120 nM; at CDK9/CycT1, 4 nM; in assay [2] (Mus musculus, B16-F10, 96 h) it was 150 nM; in assay [3] (Homo sapiens, DU-145, 96 h), 110 nM.

For `CCOc1cc(F)ccc1-c1cc(Nc2cc(CS(C)(=N)=O)cc(F)n2)ncc1F` (single isomer, unassigned; (+)) [Example 28, (+)-4-(2-Ethoxy-4-fluorophenyl)-5-fluoro-N-{6-fluoro-4-[(S-methylsulfonimidoyl)methyl]pyridin-2-yl}pyridin-2-amine], the IC50 in assay [1] (Homo sapiens, NCI-H460, 96 h) was determined as 190 nM; against CDK9/CycT1 it was 4 nM; in assay [2] (Mus musculus, B16-F10, 96 h), 150 nM; in assay [3] (Homo sapiens, DU-145, 96 h), 120 nM.

For `COc1cc(F)ccc1-c1cc(Nc2cc(CS(C)(=N)=O)c(Br)c(C)n2)ncc1F` (racemic) [Example 5, (rac)-5-Bromo-N-[5-fluoro-4-(4-fluoro-2-methoxyphenyl)pyridin-2-yl]-6-methyl-4-[(S-methylsulfonimidoyl)methyl]pyridin-2-amine], the IC50 is 120 nM in assay [1] (Homo sapiens, NCI-H460, 96 h); 3 nM against CDK9/CycT1; 120 nM in assay [2] (Mus musculus, B16-F10, 96 h); 110 nM in assay [3] (Homo sapiens, DU-145, 96 h).

For the compound `COc1cc(F)ccc1-c1cc(Nc2cc(CS(C)(=N)=O)cc(C)n2)ncc1F` (single isomer, unassigned; (-)) [Example 33, (−)-5-Fluoro-4-(4-fluoro-2-methoxyphenyl)-N-{6-methyl-4-[(S-methylsulfonimidoyl)methyl]pyridin-2-yl}pyridin-2-amine], the IC50 in assay [1] stood at 30 nM; on CDK9/CycT1 it was 1 nM; in assay [2] it was 54 nM; in assay [3] it was 31 nM.

For `COc1cc(F)ccc1-c1cc(Nc2cc(CS(C)(=N)=O)cc(C(F)F)n2)ncc1F` (racemic) [Example 31, (rac)-N-{6-(Difluoromethyl)-4-[(S-methylsulfonimidoyl)methyl]pyridin-2-yl}-5-fluoro-4-(4-fluoro-2-methoxyphenyl)pyridin-2-amine], the IC50 against CDK9/CycT1 worked out at 1 nM.

As to `COc1cc(F)ccc1-c1cc(Nc2cc(CS(C)(=N)=O)ccn2)ncc1F` (single isomer, unassigned; (-)) [Example 3, (−)-5-Fluoro-4-(4-fluoro-2-methoxyphenyl)-N-{4-[(S-methylsulfonimidoyl)methyl]pyridin-2-yl}pyridin-2-amine], the figures for the IC50 in assay [1], in assay [2] and in assay [3] were 65 nM, 310 nM and 37 nM, respectively.

As for `COc1cc(F)ccc1-c1cc(Nc2cc(CS(=N)(=O)CCN)ccn2)ncc1F` (racemic) [Example 9, (rac)-N-(4-{[S-(2-Aminoethyl)sulfonimidoyl]methyl}pyridin-2-yl)-5-fluoro-4-(4-fluoro-2-methoxyphenyl)pyridin-2-amine], the IC50 against CDK9/CycT1 came to 6 nM.

For `COc1cc(F)ccc1-c1cc(Nc2cc(CS(C)(=N)=O)ccn2)ncc1F` (single isomer, unassigned; enantiomer 1) [Example 16, 5-Fluoro-4-(4-fluoro-2-methoxyphenyl)-N-{4-[(S-methylsulfonimidoyl)methyl]pyridin-2-yl}pyridin-2-amine hydrochloride; enantiomer 1], the IC50 in assay [1] is 130 nM; in assay [2] it was 150 nM; in assay [3] it was 120 nM.

On to `COc1cc(F)ccc1-c1cc(Nc2cc(CS(C)(=N)=O)ccn2)ncc1F.Cl` (single isomer, unassigned; enantiomer 2) [Example 14, 5-Fluoro-4-(4-fluoro-2-methoxyphenyl)-N-{4-[(S-methylsulfonimidoyl)methyl]pyridin-2-yl}pyridin-2-amine hydrochloride; enantiomer 2], for which the IC50 in assay [1] turned out to be 30 nM; in assay [2], 73 nM; in assay [3], 33 nM.

Take `COc1cc(F)ccc1-c1cc(Nc2cc(CS(C)(=N)=O)ccn2)ncc1F` (racemic) [Example 1, (rac)-5-Fluoro-4-(4-fluoro-2-methoxyphenyl)-N-{4-[(S-methylsulfonimidoyl)methyl]pyridin-2-yl}pyridin-2-amine]: the IC50 turned out to be 62 nM in assay [1] (Homo sapiens, NCI-H460, 96 h); 110 nM in assay [2] (Mus musculus, B16-F10, 96 h); 37 nM in assay [3] (Homo sapiens, DU-145, 96 h).

On to `COc1cc(F)ccc1-c1cc(Nc2cc(CS(C)(=N)=O)ccn2)ncc1F` (single isomer, unassigned; (+)) [Example 2, (+)-5-Fluoro-4-(4-fluoro-2-methoxyphenyl)-N-{4-[(S-methylsulfonimidoyl)methyl]pyridin-2-yl}pyridin-2-amine], for which the figures for the IC50 in assay [1], in assay [2] and in assay [3] were 75 nM, 240 nM and 33 nM, respectively.
